# Assay results as given in patent publication US20060099676A1, “Mammalian genes involved in rapamycin resistance and tumorgenesis: rapr6 genes” (priority 2002, published 2006).
# System: N2a cells
# Assay: MTT proliferation assay: rapamycin mediated cell growth inhibition of N2a cells
# Format: cell-based, mouse
# Conditions: FIG. 7
# Description: In a preferred embodiment, an MTT proliferation assay (see, e.g., van de Loosdrechet, et al., 1994, J. Immunol. Methods 174: 311-320; Ohno et al., 1991, J. Immunol. Methods 145:199-203; Ferrari et al., 1990, J. Immunol. Methods 131: 165-172; Alley et al., 1988, Cancer Res. 48: 589-601; Carmichael et al., 1987, Cancer Res. 47:936-942; Gerlier et al., 1986, J. Immunol. Methods 65:55-63; Mosmann, 1983, J. Immunological Methods 65:55-63) is used to screen for a candidate agent in conjunction with rapamycin to inhibit the growth of rapamycin resistant cells. The cells are treated with chosen concentrations of the candidate agent and rapamycin for 4 to 72 hours. The cells are then incubated with a suitable amount of 3-(4,5-dimethylthiazol-2-yl)-2,5-diphenyitetrazoiium bromide (MTT) for 1-8 hours such that viable cells convert MTT into an intracellular deposit of insoluble formazan. After removing the excess MTT contained in the supernatant, a suitable MTT solvent, e.g., a DMSO solution, is added to dissolved the formazan. The concentration of […], which is proportional to the number of viable cells, is then measured by determining the optical density at 570 nm. A plurality of different concentrations of the candidate agent can be assayed to allow the determination of the concentrations of the candidate agent and rapamycin which causes 50% inhibition. […]
smiles,measurement,setting,value
"CO[C@H]1C[C@@H]2CC[C@@H](C)[C@@](O)(O2)C(=O)C(=O)N2CCCC[C@H]2C(=O)O[C@H]([C@H](C)C[C@@H]2CC[C@@H](O)[C@H](OC)C2)CC(=O)[C@H](C)/C=C(\C)[C@@H](O)[C@@H](OC)C(=O)[C@H](C)C[C@H](C)/C=C/C=C/C=C/1C [rapamycin, 9,10,12,13,14,21,22,23,24,25,26,27, 32,33,34,34a-hexadecahydro-9,27-dihydroxy-3-[2-(4-hydroxy-3-methoxycyclohexyl)-1-methylethyl]-10,21-dimethoxy-6,8,12,14,20,26-hexamethyl-23,27-epoxy-3H-pyrido[2,1-c][1,4]oxaazacyclohentricontine-1,5,11,28,29(4H,6H,31H)-pentone]",rapamycin concentration at which the growth of N2a cells is completely inhibited,N2a cell line,≥ 1 µM
same,concentration at which N2a cells are sensitive to rapamycin mediated cell growth inhibition,"mouse neuroblastoma N2a cells, MTT assay",10 nM
